Results on ten molecules are retold here after BindingDB's records for doi:10.1016/1074-5521(95)90124-8 (University of California San Diego, 1995).

Counter-ions that a name gives are not always drawn.

Assay [1] concerns the target cAMP-dependent protein kinase (Oryctolagus cuniculus, UniProt Q95J97). Briefly: Inhibition Assay. The conditions noted are these: pH 7.5. From the text:
Cyclic AMP-dependent protein kinase (PKA) enzyme inhibition assay using purified recombinant C subunit of PKA (catalytic (C) subunit (cPKA)) with holoenzyme purified from rabbit muscle.

Assay [2] deals with Protein kinase C beta type (Rattus norvegicus, UniProt P68403). Briefly: Inhibition Assay. The conditions noted are these: 30 °C.
Sequence of Protein kinase C beta type (P68403 whole entry): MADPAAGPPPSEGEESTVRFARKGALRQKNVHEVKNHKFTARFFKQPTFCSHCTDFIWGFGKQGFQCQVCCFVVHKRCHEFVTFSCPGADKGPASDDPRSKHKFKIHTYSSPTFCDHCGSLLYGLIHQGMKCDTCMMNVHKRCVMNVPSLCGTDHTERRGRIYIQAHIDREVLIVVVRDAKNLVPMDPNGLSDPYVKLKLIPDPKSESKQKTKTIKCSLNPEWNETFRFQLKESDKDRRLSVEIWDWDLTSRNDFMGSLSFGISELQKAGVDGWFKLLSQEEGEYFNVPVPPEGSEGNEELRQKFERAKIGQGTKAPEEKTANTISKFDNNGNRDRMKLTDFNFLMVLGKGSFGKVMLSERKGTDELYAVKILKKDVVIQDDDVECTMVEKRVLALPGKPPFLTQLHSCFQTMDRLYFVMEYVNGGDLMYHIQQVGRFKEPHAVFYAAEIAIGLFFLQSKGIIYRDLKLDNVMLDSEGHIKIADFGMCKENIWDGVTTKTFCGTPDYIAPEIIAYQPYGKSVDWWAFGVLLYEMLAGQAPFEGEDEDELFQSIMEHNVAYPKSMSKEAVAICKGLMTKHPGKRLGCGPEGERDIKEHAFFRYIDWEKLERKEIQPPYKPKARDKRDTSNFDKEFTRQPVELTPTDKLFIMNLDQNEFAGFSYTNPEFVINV

Take `CN[C@@H]1C[C@H]2O[C@@](C)([C@@H]1OC)n1c3ccccc3c3c4c(c5c6ccccc6n2c5c31)C(=O)NC4`: the affinity in assay [1] corresponds to a Ki of 0.035 µM. That is a double-digit nanomolar value.

As for `O=C(N[C@@H]1CNCCC[C@H]1OC(=O)c1cc(O)c(C(=O)c2ccccc2C(=O)O)c(O)c1)c1ccc(O)cc1`, in assay [2] (pH 7.5), the half-maximal inhibitory concentration (IC50) (in general, the concentration that gives 50% inhibition) came out at 0.834 µM and the affinity, expressed as Ki, was 0.64 µM. For the same molecule, in assay [1] (30 °C), the concentration for half-maximal inhibition (IC50) turned out to be 0.0063 µM and the inhibition constant Ki (in general, the equilibrium dissociation constant of an inhibitor or competing ligand from its target) came out at 0.0039 µM.

For the molecule `O=C(N[C@@H]1CNCCC[C@H]1OC(=O)c1ccc(C(=O)c2c(O)cccc2C(=O)O)cc1)c1ccc(O)cc1` [4'',6''-Dideoxybalanol, 6], the results for the IC50 in assay [2] (pH 7.5) and in assay [1] (30 °C) were 0.111 µM and 0.0055 µM, respectively. Further, the inhibitory constant (Ki) in assay [2] (pH 7.5) is 0.08 µM; in assay [1] (30 °C), 0.0034 µM.

In assay [2] (pH 7.5), `O=C(N[C@@H]1CNCCC[C@H]1OC(=O)c1cc(O)c(C(=O)c2c(O)cccc2C(=O)O)c(O)c1)c1ccccc1` [5'-Deoxybalanol, 7] displayed a half-inhibitory concentration (IC50) of 0.095 µM and a Ki of 0.069 µM. In addition, in assay [1] (30 °C), 0.0057 µM corresponded to half-maximal inhibition (IC50) and the Ki is 0.0035 µM.

In assay [2], `O=C(N[C@@H]1CNCCC[C@H]1OC(=O)c1cc(O)c(C(=O)c2ccccc2O)c(O)c1)c1ccc(O)cc1` [14''-Decarboxybalanol hydrochloride, 5] gave a half-maximal inhibitory concentration (IC50) of 6.9 µM and an inhibition constant (Ki) of 5 µM. In assay [1] (30 °C), this molecule returned a concentration for half-maximal inhibition (IC50) of 0.018 µM and a Ki of 0.011 µM.

With `O=C(N[C@@H]1CNCCC[C@H]1OC(=O)c1cc(O)c(C(=O)c2c(O)cccc2C(=O)O)c(O)c1)c1ccc(O)cc1` [Acyclic Balanol Analog (-)-1], the affinity in assay [2], expressed as Ki, was 0.0053 µM.

As to `COC(=O)c1cc(O)c(C(=O)c2c(O)cccc2C(=O)O)c(O)c1` [Benzophenone fragment, 2], the figures for the Ki in assay [2] (pH 7.5) and in assay [1] (30 °C) were > 1000 µM and > 10 µM, respectively.

In the case of `O=S(ONCCNC/C=C/c1ccc(Br)cc1)c1cccc2cnccc12` (stereo unspecified) [H-89, 10], the Ki in assay [2] came to 31.7 µM; in assay [1] it was 0.048 µM.

Take `O=C(N[C@@H]1CNCCC[C@H]1O)c1ccc(O)cc1` [Hexahydroazepine, 3]: the Ki was > 1000 µM in assay [2] and > 10 µM in assay [1].

For the molecule `CCCCCCOC(=O)[C@@]1(O)CC2O[C@]1(C)n1c3ccccc3c3c4c(c5c6ccccc6n2c5c31)C(=O)NC4` [KT5720, 9], the Ki in assay [2] was > 2 µM; in assay [1], 0.056 µM.
